One data set in a line: method code SF-AS, from DOI: 10.1016/0006-2952(77)90261-1, PMID: 588293.
Conditions: not given
The logP is the decadic logarithm of the partition coefficient of the neutral form, usually between octanol and water. Read a low logP as lower lipophilicity. The compound `CCC1(CC(C)C(C)C)C(=O)NC(=O)NC1=O` (configuration not stated) came in with a logP of 2.02.

Staying with this data set, now noted: pH 7.4.
One may read the logD as the decadic logarithm of the distribution of all forms, ionised or not, between an organic phase and buffer at a given pH. Read a low logD as a more hydrophilic compound. Regarding `CCC1(C2=CCCCCC2)C(=O)NC(=O)N(C)C1=O` (configuration not stated), the logD is 2.82.

In turn, `C=C(Br)CC1(C(C)CCC)C(=O)NC(=O)NC1=O` (configuration not stated) had a logD of 2.09.

In the case of `CCCCCCC1(CC)C(=O)NC(=O)NC1=O`, the logD is 2.46.

For the compound `C=CCC1(C(C)C)C(=O)NC(=O)NC1=O`, the logD was 1.22.

Compound `C=CCC1(C(C)CCC)C(=O)NC(=O)NC1=O` (configuration not stated) registered a logD of 1.97.

`CCC1(C2=CCCCCC2)C(=O)NC(=O)NC1=O` yielded a logD of 2.17.

Compound `C=CCC1(C2=CCCC2)C(=O)NC(=O)N(C)C1=O` (configuration not stated) showed a logD of 1.89.

Take `C=C(Br)CC1(C(C)C)C(=O)NC(=O)NC1=O`: the log distribution coefficient (logD) was determined as 1.47.

Take `CCC1(C2=CC3CCC(C2)C3)C(=O)NC(=O)NC1=O` (configuration not stated): the logD came to 2.53.

`C=C(Br)CC1(C(C)CC)C(=O)NC(=O)NC1=O` (configuration not stated) registered a logD of 1.72.

Take `CCCCCCCC1(CC)C(=O)NC(=O)NC1=O`: the logD came out at 2.91.

`CCCC1(CC)C(=O)NC(=O)NC1=O` returned a logD of 0.66.

With `C=C(Br)CC1(C(C)CC)C(=O)NC(=O)N(C)C1=O` (configuration not stated), the logD stood at 2.43.

As to `C=CCC1(CC(=C)Br)C(=O)NC(=O)NC1=O`, the logD is 1.37.

`C=C(Br)CC1(C(C)C)C(=O)NC(=O)N(C)C1=O` (configuration not stated) yielded a logD of 2.11.

`CCC1(C2=CC3CCC(C2)C3)C(=O)NC(=O)N(C)C1=O` (configuration not stated) gave a logD of 3.15.

Compound `CCCCCCCCC1(CC)C(=O)NC(=O)NC1=O` showed a logD of 3.08.

`CCC1(C2=CCCCC2)C(=O)NC(=O)NC1=O` displayed a logD of 1.77.

On to `CCC1(C2=CCCCC2)C(=O)NC(=O)N(C)C1=O` (configuration not stated), for which the logD was found to be 2.25.

Regarding `C=CCC1(C2C=CCC2)C(=O)NC(=O)NC1=O` (configuration not stated), the logD was found to be 1.51.

`C=CCC1(CC(C)(C)C)C(=O)NC(=O)NC1=O` displayed a logD of 1.71.

These data come from the SangsterLogP compilation.
